Data taken from PMC3675114, “Structural Basis and Selectivity of Tankyrase Inhibition by a Wnt Signaling Inhibitor WIKI4” (PLoS ONE, 2013).

Target: T1, Tankyrase 1 (TNKS1) (Homo sapiens, UniProt O95271)
T1 construct: gene TNKS
Test: fluorescence-based homogeneous NAD+ consumption activity assay
Type: biochemical

T1 sequence (O95271 whole entry): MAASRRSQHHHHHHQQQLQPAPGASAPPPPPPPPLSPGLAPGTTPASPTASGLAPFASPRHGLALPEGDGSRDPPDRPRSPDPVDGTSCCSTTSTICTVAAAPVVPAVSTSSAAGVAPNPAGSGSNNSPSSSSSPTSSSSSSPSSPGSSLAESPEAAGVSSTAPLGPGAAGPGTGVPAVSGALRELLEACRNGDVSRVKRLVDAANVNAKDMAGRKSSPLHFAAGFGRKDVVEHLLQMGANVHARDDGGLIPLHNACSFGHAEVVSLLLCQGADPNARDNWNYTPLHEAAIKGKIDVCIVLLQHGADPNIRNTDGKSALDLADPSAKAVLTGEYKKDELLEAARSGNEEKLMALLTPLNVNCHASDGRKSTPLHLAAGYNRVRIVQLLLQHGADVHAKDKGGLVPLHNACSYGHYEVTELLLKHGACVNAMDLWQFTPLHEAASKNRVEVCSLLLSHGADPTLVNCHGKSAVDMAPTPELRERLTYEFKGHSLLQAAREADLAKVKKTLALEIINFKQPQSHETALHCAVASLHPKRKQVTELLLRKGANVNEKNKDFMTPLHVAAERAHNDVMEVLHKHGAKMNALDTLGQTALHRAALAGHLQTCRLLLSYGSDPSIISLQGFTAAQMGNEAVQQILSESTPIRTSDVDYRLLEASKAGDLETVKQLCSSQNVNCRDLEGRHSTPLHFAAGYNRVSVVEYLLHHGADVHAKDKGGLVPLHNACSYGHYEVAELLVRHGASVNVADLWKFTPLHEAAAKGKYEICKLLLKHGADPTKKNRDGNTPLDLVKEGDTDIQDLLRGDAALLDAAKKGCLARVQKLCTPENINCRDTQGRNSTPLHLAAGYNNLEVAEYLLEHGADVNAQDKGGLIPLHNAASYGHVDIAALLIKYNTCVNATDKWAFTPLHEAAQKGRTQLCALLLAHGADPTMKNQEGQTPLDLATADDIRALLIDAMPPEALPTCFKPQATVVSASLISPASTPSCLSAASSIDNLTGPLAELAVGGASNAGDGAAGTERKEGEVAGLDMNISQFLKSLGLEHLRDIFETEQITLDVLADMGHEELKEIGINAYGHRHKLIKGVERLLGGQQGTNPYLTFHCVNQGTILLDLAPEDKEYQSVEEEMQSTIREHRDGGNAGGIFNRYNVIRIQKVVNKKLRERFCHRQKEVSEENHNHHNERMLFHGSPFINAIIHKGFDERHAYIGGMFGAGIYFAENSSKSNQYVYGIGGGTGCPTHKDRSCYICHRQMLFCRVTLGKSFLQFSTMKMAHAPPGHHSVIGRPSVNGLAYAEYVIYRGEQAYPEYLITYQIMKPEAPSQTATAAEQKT

`COc1ccc(-n2c(SCCCN3C(=O)c4cccc5cccc(c45)C3=O)nnc2-c2ccncc2)cc1` [WIKI4] gave an IC50 of 26 nM.
